{"source": "patent US20210392889A1", "about": "“COMPOSITIONS COMPRISING PYRIDINE CARBOXYLATE HERBICIDES WITH PDS INHIBITOR HERBICIDES” (Corteva Agriscience LLC, priority 2018, published 2021)", "key": {"spring wheat (TRZAS)": {"tested_on": "spring wheat (TRZAS)", "test": "Greenhouse postemergence phytotoxicity on crop, visual injury after 20-22 d", "format": "in vivo, Triticum aestivum", "conditions": "for visual injury: Table 1", "description": "(§1) Seeds of the desired test plant species were planted in a 90:10% v/v (volume/volume) mixture of PRO-MIX® BX (Premier Tech Horticulture, Quakertown, Pa., USA) and PROFILE® GREENS GRADE™ (Profile Products LLC, Buffalo Grove, Ill., USA) planting mixture, which typically has a pH of 5.2 to 6.2 and an organic matter content of at least 50 percent, in plastic pots with a surface area of 103.2 square centimeters (cm^2). In some aspects, to ensure good germination and healthy plants, a fungicide treatment and/or other chemical or physical treatment was applied. The plants were grown for 7-36 days (d) in a greenhouse with an approximate 14-hour (h) photoperiod which was maintained at about 23° C. during the day and 22° C. during the night. Nutrients and water were added on a regular basis and supplemental lighting was provided with overhead metal halide 1000-Watt lamps as necessary. The plants were employed for testing when they reached the second or third true leaf stage.\n(§2) Emulsifiable concentrates of each of each pyridine carboxylate herbicide (Compound A or Compound B) were prepared at 100 grams acid equivalent per liter (g ae/L). The emulsifiable concentrates also included a safener, cloquintocet-mexyl, at 120 grams active ingredient per liter (g ai/L). An aliquot of each emulsifiable concentrate was placed in a 25 mL glass vial and diluted with an aqueous mixture of 1.25% (v/v) ACTIROB® B esterified rapeseed oil (Bayer Crop Science, Research Triangle Park, N.C., USA) or MSO® Concentrate with LECI-TECH® methylated soybean oil (Loveland Products, Loveland, Colo., USA) to obtain concentrated stock solutions at the highest application rate for each herbicide, based upon a 12 milliliter (mL) application volume at a rate of 187 liters per hectare (L/ha). The concentrated stock solutions were further diluted with an aqueous mixture of 1.25% v/v ACTIROB® B or MSO® Concentrate with LECI-TECH® to obtain stock solutions at reduced application rates for each herbicide. Spray solutions of the herbicide combinations (Compound A or Compound B plus PDS inhibitor herbicide) were prepared by adding weighed amounts or aliquots of the PDS inhibitor herbicide to the stock solutions of Compound A or Compound B to form 12-mL spray solutions in two- or three-way combinations.\n(§3) The spray solutions were applied to the plant material with an overhead Mandel track sprayer equipped with 8002E nozzles calibrated to deliver 187 L/ha over an application area of 0.503 square meters (m^2) at a spray height of 18 inches ([…] centimeters (cm)) above the average plant canopy. Control plants were sprayed in the same manner with the solvent blank. All pyridine carboxylate herbicide (component a) application rates are given as “g ae/ha” and all PDS inhibitor herbicide (component b) application rates are given as “g ai/ha.”\n(§4) The treated plants and control plants were placed in a greenhouse as described above and watered by sub-irrigation to prevent wash-off of the test compounds. After 20-22 d, the condition of the test plants as compared with that of the control plants was determined visually and scored on a scale of 0 to 100 percent where 0 corresponds to no injury and 100 corresponds to complete kill."}, "spring barley (HORVS)": {"tested_on": "spring barley (HORVS)", "test": "Greenhouse postemergence phytotoxicity on crop, visual injury after 20-22 d", "format": "in vivo, Hordeum vulgare", "conditions": "for visual injury: Table 1", "description": "as §1, §2, §3, §4"}}, "data": [{"compound": "N#CCOC(=O)c1nc(-c2ccc3cc[nH]c3c2F)c(F)c(N)c1Cl", "note": "[Compound A, cyanomethyl 4-amino-3-chloro-5-fluoro-6-(7-fluoro-1H-indol-6-yl)pyridine-2-carboxylate]", "values": [{"measurement": "visual injury", "setting": "spring wheat (TRZAS); 7.5 g/ha", "value": 0, "unit": "%"}, {"measurement": "visual injury Obs", "setting": "spring wheat (TRZAS); 7.5 g/ha, Table 2", "value": 0, "unit": "%"}, {"measurement": "visual injury Obs", "setting": "spring wheat (TRZAS); 7.5 g/ha, Table 3", "value": 0, "unit": "%"}, {"measurement": "visual injury Obs", "setting": "spring wheat (TRZAS); 7.5 g/ha, Table 5", "value": 0, "unit": "%"}, {"measurement": "visual injury Obs", "setting": "spring wheat (TRZAS); 7.5 g/ha, Table 6", "value": 0, "unit": "%"}, {"measurement": "visual injury Obs", "setting": "spring wheat (TRZAS); 7.5 g/ha, Table 7", "value": 0, "unit": "%"}, {"measurement": "visual injury Obs", "setting": "spring wheat (TRZAS); 7.5 g/ha, Table 8", "value": 3, "unit": "%"}, {"measurement": "visual injury", "setting": "spring wheat (TRZAS); 10 g/ha", "value": 0, "unit": "%"}, {"measurement": "visual injury Obs", "setting": "spring wheat (TRZAS); 10 g/ha, Table 2", "value": 0, "unit": "%"}, {"measurement": "visual injury Obs", "setting": "spring wheat (TRZAS); 10 g/ha, Table 3", "value": 0, "unit": "%"}, {"measurement": "visual injury Obs", "setting": "spring wheat (TRZAS); 10 g/ha, Table 5", "value": 0, "unit": "%"}, {"measurement": "visual injury Obs", "setting": "spring wheat (TRZAS); 10 g/ha, Table 6", "value": 0, "unit": "%"}, {"measurement": "visual injury Obs", "setting": "spring wheat (TRZAS); 10 g/ha, Table 7", "value": 0, "unit": "%"}, {"measurement": "visual injury Obs", "setting": "spring wheat (TRZAS); 10 g/ha, Table 8", "value": 3, "unit": "%"}, {"measurement": "visual injury Obs", "setting": "spring wheat (TRZAS); 15 g/ha, Table 8", "value": 0, "unit": "%"}, {"measurement": "visual injury", "setting": "spring barley (HORVS); 7.5 g/ha", "value": 0, "unit": "%"}, {"measurement": "visual injury Obs", "setting": "spring barley (HORVS); 7.5 g/ha, Table 2", "value": 8, "unit": "%"}, {"measurement": "visual injury Obs", "setting": "spring barley (HORVS); 7.5 g/ha, Table 3", "value": 0, "unit": "%"}, {"measurement": "visual injury Obs", "setting": "spring barley (HORVS); 7.5 g/ha, Table 7", "value": 0, "unit": "%"}, {"measurement": "visual injury Obs", "setting": "spring barley (HORVS); 7.5 g/ha, Table 8", "value": 8, "unit": "%"}, {"measurement": "visual injury", "setting": "spring barley (HORVS); 10 g/ha", "value": 0, "unit": "%"}, {"measurement": "visual injury Obs", "setting": "spring barley (HORVS); 10 g/ha, Table 2", "value": 0, "unit": "%"}, {"measurement": "visual injury Obs", "setting": "spring barley (HORVS); 10 g/ha, Table 3", "value": 0, "unit": "%"}, {"measurement": "visual injury Obs", "setting": "spring barley (HORVS); 10 g/ha, Table 7", "value": 0, "unit": "%"}, {"measurement": "visual injury Obs", "setting": "spring barley (HORVS); 10 g/ha, Table 8", "value": 5, "unit": "%"}, {"measurement": "visual injury Obs", "setting": "spring barley (HORVS); 15 g/ha, Table 8", "value": 3, "unit": "%"}]}]}
